Data on three compounds can be found in patent publication US7851490B2, “Benzimidazole derivatives and their use for modulating the GABAA receptor complex” (Neurosearch A/S, priority 2005, dated 2010).

The structures appear in SMILES notation.

The test deals with benzodiazepine binding site on GABAA receptors. The test is described as follows: In vitro inhibition of 3H-flunitrazepam (3H-FNM) binding. The arrangement: species or system rat. The following applies: inhibition of specific binding of 3H-FNM (1 nM), cerebral cortex membranes from male Wistar rats, 40 min at 2° C. The procedure: In Vitro Inhibition of ^3H-flunitrazepam (^3H-FNM) Binding
The GABA recognition site and the benzodiazepine modulatory unit can selectively be labelled with ^3H-flunitrazepam.
Preparations are performed at 0-4° C. unless otherwise indicated. Cerebral cortex from male Wistar rats (150-200 g) is homogenised for 5-10 sec in 20 ml Tris-HCl (30 mM, pH 7.4) using an Ultra-Turrax homogeniser. The suspension is centrifuged at 27,000×g for 15 min and the pellet is washed three times with buffer (centrifuged at 27,000×g for 10 min). The washed pellet is homogenized in 20 ml of buffer and incubated on a water bath (37° C.) for 30 min to remove endogenous GABA and then centrifuged for 10 min at 27,000×g. The pellet is then homogenized in buffer and centrifuged for 10 min at 27,000×g. The final pellet is resuspended in 30 ml buffer and the preparation is frozen and stored at −20° C.
The membrane preparation is thawed and centrifuged at 2° C. for 10 min at 27,000×g. The pellet is washed twice with 20 ml 50 mM Tris-citrate, pH 7.1 using an Ultra-Turrax homogeniser and centrifuged for 10 min at 27,000×g. The final pellet is resuspended in 50 mM Tris-citrate, pH 7.1 (500 ml buffer per g of original tissue), and then used for binding assays. Aliquots of 0.5 ml tissue are added to 25 μl of test solution and 25 μl of ^3H-FNM (1 nM, final concentration), mixed and incubated for 40 min at 2° C. Non-specific binding is determined using Clonazepam (1 μM, final concentration). After incubation the samples are added 5 ml of ice-cold buffer and poured directly onto Whatman GF/C glass fibre filters under suction and immediately washed with 5 ml ice-cold buffer. The amount of radioactivity on the filters is determined by conventional liquid scintillation counting. Specific binding is total binding minus non-specific binding.
25-75% inhibition of specific binding must be obtained, before calculation of an IC50.
The test value will be given as IC50 (the concentration (μM) of the test substance which inhibits the specific binding of ^3H-FNM by 50%). IC50=(applied test substance concentration, […]
Broadly, the IC50 is the concentration at which inhibition is half-maximal. The low end stands for greater potency, the high end for weaker potency. Compound `CC(=O)NCc1ccc2c(c1)ncn2-c1cccc(-c2nccs2)c1` [N-[1-(3-Thiazol-2-yl-phenyl)-1H-benzoimidazol-5-ylmethyl]-acetamide] showed an IC50 of 0.024 µM.

`O=CNCc1ccc2c(c1)ncn2-c1cccc(-c2nccs2)c1` [N-{1-[3-(Thiazol-2-yl)-phenyl]-1H-benzoimidazol-5-ylmethyl}-formamide] showed an IC50 of 0.0048 µM.

As to `NCc1ccc2c(c1)ncn2-c1cccc(-c2nccs2)c1` [C-[1-(3-Thiazol-2-yl-phenyl)-1H-benzoimidazol-5-yl]-methylamine], the IC50 worked out at 0.011 µM.
